Assay results published in article PMC11468294, “Peptide Amphiphiles as Biodegradable Adjuvants for Efficient Retroviral Gene Delivery” (Advanced Healthcare Materials, 2023).
Where a SMILES comes first, the peptide text is derived from it. The star is where a group is joined. Palmitoyl = CCCCCCCCCCCCCCCC(=O)*

What was measured:
[1] = Zeta-potential measurement; assay type: physicochemical; details: fibrils 1 mg mL-1 in PBS, 60 µL diluted in 600 µL 1 mM KCl; triplicates
Procedure: Zeta‐potential: 60 µL of the peptides (1 mg mL^−1) were diluted in 600 µL, 1 mM KCl solution and placed in a disposable folded capillary cuvette. All zeta‐potential measurements (Zetasizer, Malvern Instruments) were conducted in triplicates for each sample.

HeLa cells = experiment: Cell-PA interaction by confocal laser scanning microscopy; assay type: cell-based; details: peptide 20 µg mL-1 added for 30 min, washed, Proteostat stain
Procedure: Confocal laser scanning microscopy and degradation study with PA1‐3 and HeLa cells: HeLa cells were seeded one day prior to conducting the assay (40000/well) in an 8‐well IBIDI slide. 4 µL of the preformed peptide fibrils (1 mg mL^−1) were diluted with 4 µL Proteostat (Enzo Life Science, 1 µL stock in 999 µL PBS) and incubated for 10 min and further diluted with medium to receive a final peptide concentration of 20 µg mL^−1. The nucleus of the HeLa cells was stained with Hoechst 33 342 (NucBlue, Thermo Fisher Scientific). The peptide solution was transferred to the HeLa cells and incubated for 30 min at 37°C before washing three times with PBS. The interaction of fibril clusters with cells was monitored after 30 min incubation time on a Stellaris 8 confocal laser scanning microscope (Leica) equipped with a 20x air objective and laser excitation wavelengths of 405 nm (Hoechst) and 561 nm (Proteostat). For the evaluation of aggregate degradation, the samples were further incubated at 37°C for 3 d and analyzed without any additional washing step. The evaluation of aggregate size and number was conducted by analyzing Proteostat stained aggregates via the 3D objects counter function of ImageJ 1.53f51 for 3 individual measurements (area 581.25 µm × 581.25 µm). […] The number of aggregates larger than 10 µm^2 were counted via the 3D objects counter function of ImageJ 1.53f51. The mean number and standard deviations were determined by averaging at least three technical triplicates.
Figure S6 Laser scanning microscopy micrographs of A cells only (control), and Proteostat-stained (red) peptides B EF-
C ([…]), C PA1, D PA2, E PA3, F P1, G P2, H P3 added to HeLa cells (nucleus in blue). The peptides (20 µg mL-
1) were added to cells for 30 min, washed and analyzed. […]

[2] = Control experiments degradation analysis without cells; assay type: physicochemical; details: Proteostat-stained fibrils without cells, 37°C, 30 min vs 3 d
Procedure: Control experiments degradation analysis: To check changes of fibril aggregation without cells fluorescence microscopy measurements (Leica DMi8 microscope, 10x air objective, Leica MC170 HD camera, λem = 527/30 nm, λex = 480/40 nm) were performed analogously to the cell‐experiments with PA1‐3. Briefly, 4 µL of the preformed peptide fibrils (1 mg mL^−1) were diluted with 4 µL Proteostat (Enzo Life Science, 1 µL stock in 999 µL PBS) and incubated for 10 min and further diluted with medium to receive a final peptide concentration of 20 µg mL^−1. The fibril aggregates were monitored after 30 min incubation at 37°C and for the evaluation of aggregate degradation, the samples were further incubated at 37°C for 3 d and analyzed without any additional washing step. […] The evaluation of aggregate size and number was conducted by analyzing Proteostat stained aggregates via the 3D objects counter function of ImageJ 1.53f51 for at least three individual measurements (area 1331.2 µm × 1331.2 µm) of three individually repeated experiments. […]
Aggregate analysis was conducted via fluorescence microscopy by cumulating triplicate measurements. […]

ThT fluorescence = assay type: physicochemical; set-up: key: + = ThT active; − = no ThT fluorescence observed; details: 1 mg mL-1 in PBS; ThT-active if fluorescence at least twice the control (PBS with 10% DMSO)
Procedure: ThT‐fluorescence: 20 µL 50 µM of ThT solution in PBS was pipetted in a black 384 well‐plate and 4 µL of the nanofibril solution 1 mg mL^−1 were added. For reference PBS with 10% DMSO (4 µL) instead of fibril solution was added. Subsequently, fluorescence emission was recorded λem = 488 nm upon excitation at λex = 440 nm with 10 nm bandwidth and multiple reads per well (3 × 3) using a Spark 20 M microplate reader (Tecan Group, Ltd). Data processing was performed with Origin software. A peptide fibril was considered as ThT‐active if the fluorescence intensity was at least twice as strong compared to the control (PBS containing 10% DMSO).

Compound | Zeta-Potential [1] | association with cellular membranes (HeLa cells) | change of aggregate size and number without cells [2] | ThT fluorescence (ThT fluorescence)
CCCCCCCCCCCCCCCC(=O)N[C@@H](Cc1ccccc1)C(=O)N[C@@H](CCC(N)=O)C(=O)N[C@@H](Cc1ccccc1)C(=O)N[C@@H](CCCCN)C(=O)N[C@@H](Cc1ccccc1)C(=O)N[C@@H](CCCCN)C(=O)N[C@@H](CS)C(N)=O [PA2] (Palmitoyl-FQFKFKC-NH2) | +19.2 ± 3.4 mV | association with cellular membranes | not significantly changing in size and number | +
C16-VVVAAAKKK-NH2 [PA1] | +22.2 ± 0.7 mV | association with cellular membranes | not significantly changing in size and number | +
